Molecular target: T1, PRMT5/MEP50 (Homo sapiens, UniProt O14744)
T1 construct: Flag-PRMT5; made in house; host or cells: Spodoptera frugiperda (SF9) insect cells, baculovirus (pDEST8)
Assay: PRMT5 Biochemical Assay (PRMT5/MEP50 enzyme assay on peptide substrate, 3H-SAM Flashplate)
Conditions: PRMT5/MEP50 4 nM, 3H-SAM 75 nM, peptide 40 nM, 30 min preincubation at 25 degrees Celsius
Excerpt: S-adenosylmethionine (SAM), S-adenosylhomocysteine (SAH), bicine, KCl, Tween20, dimethylsulfoxide (DMSO), bovine skin gelatin (BSG), and Tris(2-carboxyethyl)phosphine hydrochloride solution (TCEP) were purchased from Sigma-Aldrich at the highest level of purity possible. ^3H-SAM was purchase from American Radiolabeled Chemicals with a specific activity of 80 Ci/mmol. 384-well streptavidin Flashplates were purchased from PerkinElmer.
Peptide representative of human histone H4 residues 1-15 was synthesized with a C-terminal linker-affinity tag motif and a C-terminal amide cap by 21st Century Biochemicals. The peptide was high high-performance liquid chromatography (HPLC) purified to greater than 95% purity and confirmed by liquid chromatography mass spectrometry (LC-MS). The sequence was Ac-[…][K-Biot]-amide (SEQ ID NO.:3).
Full-length human PRMT5 (NM_006109.3) transcript variant 1 clone was amplified from a fetal brain cDNA library, incorporating flanking 5′ sequence encoding a FLAG tag ([…]) (SEQ ID NO.:4) fused directly to Ala 2 of PRMT5. Full-length human MEP50 (NM_024102) clone was amplified from a human testis cDNA library incorporating a 5′ sequence encoding a 6-histidine tag (MHHHHHH) (SEQ ID NO.:5) fused directly to Arg 2 of MEP50. The amplified genes were sublconed into pENTR/D/TEV (Life Technologies) and subsequently transferred by Gateway™ attL×attR recombination to pDEST8 baculvirus expression vector (Life Technologies).
Recombinant baculovirus and Baculovirus-Infected Insect Cells (BIIC) were generated according to Bac-to-Bac kit instructions (Life Technologies) and Wasilko, 2006, respectively. Protein over-expression was accomplished by infecting exponentially growing Spodoptera frugiperda (SF9) cell culture at 1.2×10^6 cell/ml with a 5000 fold dilution of BIIC stock. Infections were carried out at 27° C. for 72 hours, harvested by centrifugation, and stored at −80° C. for purification.
Flag-PRMT5/6His-MeP50 was eluted with 300 mM Imidazole in the same buffer. The purity of recovered protein was 87%. Reference: Wasilko, D. J. and S. E. Lee: “TIPS: titerless infected-cells preservation and scale-up” Bioprocess J., 5 (2006), pp. 29-32.
General Procedure for PRMT5/MEP50 Enzyme Assays on Peptide Substrates.
The assays were all performed in a buffer consisting of 20 mM Bicine (pH=7.6), 1 mM TCEP, 0.005% BSG, and 0.002% Tween20, prepared on the day of use. Compounds in 100% DMSO (1 ul) were spotted into a polypropylene 384-well V-bottom plates (Greiner) using a Platemate Plus outfitted with a 384-channel head (Thermo Scientific). DMSO (1 ul) was added to Columns 11, 12, 23, 24, rows A-H for the maximum signal control and 1 ul of SAH, a known product and inhibitor of PRMT5/MEP50, was added to columns 11, 12, 23, 24, rows I-P for the minimum signal control. A cocktail (40 ul) containing the PRMT5/MEP50 enzyme and the peptide was added by Multidrop Combi (Thermo-Fisher). The compounds were allowed to incubate with PRMT5/MEP50 for 30 min at 25 degrees Celsius, then a cocktail (10 ul) containing ^3H-SAM was added to initiate the reaction (final volume=51 ul). The final concentrations of the components were as follows: PRMT5/MEP50 was 4 nM, ^3H-SAM was 75 nM, peptide was 40 nM, SAH in the minimum signal control wells was 100 uM, and the DMSO concentration was 1%. The assays were stopped by the addition of non-radioactive SAM (10 ul) to a final concentration of 600 uM, which dilutes the ^3H-SAM to a level where its incorporation into the peptide substrate is no longer detectable. 50 ul of the reaction in the 384-well polypropylene plate was then transferred to a 384-well Flashplate and the biotinylated peptides were allowed to bind to the streptavidin surface for at least 1 hour before being washed three times with 0.1% Tween20 in a Biotek ELx405 plate washer. […]

T1 sequence (O14744 with tags, fused parts or gaps): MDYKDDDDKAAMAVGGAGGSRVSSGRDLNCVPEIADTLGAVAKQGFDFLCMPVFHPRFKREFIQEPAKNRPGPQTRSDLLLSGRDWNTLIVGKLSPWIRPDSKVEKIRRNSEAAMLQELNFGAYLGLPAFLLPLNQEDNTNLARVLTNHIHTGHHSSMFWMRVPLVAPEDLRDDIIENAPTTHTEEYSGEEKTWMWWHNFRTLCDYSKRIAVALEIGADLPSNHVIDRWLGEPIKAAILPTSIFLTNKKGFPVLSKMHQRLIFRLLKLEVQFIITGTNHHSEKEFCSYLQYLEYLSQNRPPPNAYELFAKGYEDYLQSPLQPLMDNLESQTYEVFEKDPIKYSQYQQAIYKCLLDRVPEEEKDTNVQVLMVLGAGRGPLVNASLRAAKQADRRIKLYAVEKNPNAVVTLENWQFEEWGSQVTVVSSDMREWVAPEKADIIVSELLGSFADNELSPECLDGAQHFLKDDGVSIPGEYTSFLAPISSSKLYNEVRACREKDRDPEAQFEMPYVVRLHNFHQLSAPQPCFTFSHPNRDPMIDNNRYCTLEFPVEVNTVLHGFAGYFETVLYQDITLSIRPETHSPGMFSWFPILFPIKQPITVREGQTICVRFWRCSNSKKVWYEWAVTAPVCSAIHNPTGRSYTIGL
T1 sequence (Q9BQA1 with tags, fused parts or gaps partner limits assumed): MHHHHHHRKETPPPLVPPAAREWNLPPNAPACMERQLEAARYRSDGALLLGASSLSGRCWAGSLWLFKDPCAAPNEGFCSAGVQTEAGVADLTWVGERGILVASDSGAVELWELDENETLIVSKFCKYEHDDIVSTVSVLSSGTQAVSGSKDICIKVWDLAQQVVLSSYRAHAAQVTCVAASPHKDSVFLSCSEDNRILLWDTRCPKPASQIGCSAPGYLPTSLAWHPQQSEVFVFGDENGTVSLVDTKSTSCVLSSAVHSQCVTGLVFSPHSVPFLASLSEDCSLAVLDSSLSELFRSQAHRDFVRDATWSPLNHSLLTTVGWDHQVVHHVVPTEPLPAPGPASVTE

Structure (SMILES) | IC50 [µM]
CC(=O)N1CCC(Nc2cc(C(=O)NC[C@H](O)CN3CCc4ncsc4C3)ncn2)CC1 [Compound 1-18, (S)-6-((1-acetylpiperidin-4-yl)amino)-N-(3-(6,7-dihydrothiazolo[5,4-c]pyridin-5(4H)-yl)-2-hydroxypropyl)pyrimidine-4-carboxamide] | 1 to 10
CC(=O)N1CCC(Nc2cc(C(=O)NC[C@H](O)CN3CCc4ncsc4C3)ccn2)CC1 [Compound 1-19, (S)-2-((1-acetylpiperidin-4-yl)amino)-N-(3-(6,7-dihydrothiazolo[5,4-c]pyridin-5(4H)-yl)-2-hydroxypropyl)isonicotinamide] | 1 to 10
CC(=O)N1CCC(Nc2cc(C(=O)NC[C@H](O)CN3CCc4[nH]nc(-c5ccccc5)c4C3)ncn2)CC1 [Compound 3-12, (S)-6-((1-acetylpiperidin-4-yl)amino)-N-(2-hydroxy-3-(3-phenyl-6,7-dihydro-1H-pyrazolo[4,3-c]pyridin-5(4H)-yl)propyl)pyrimidine-4-carboxamide] | > 10
CC(=O)N1CC(Nc2cc(C(=O)NC[C@H](O)CN3CCc4cn[nH]c4C3)ncn2)C1 [Compound 3-44] | > 10
CC(=O)N1CC(Nc2cc(C(=O)NC[C@H](O)CN3CCc4[nH]nc(-c5ccccc5)c4C3)ncn2)C1 [Compound 3-11, (S)-6-((1-acetylazetidin-3-yl)amino)-N-(2-hydroxy-3-(3-phenyl-6,7-dihydro-1H-pyrazolo[4,3-c]pyridin-5(4H)-yl)propyl)pyrimidine-4-carboxamide] | 1 to 10
CC(=O)N1CCC(Nc2cc(C(=O)NC[C@H](O)CN3CCc4ccncc4C3)ncn2)CC1 [Compound 2-23, (S)-6-((1-acetylpiperidin-4-yl)amino)-N-(3-(3,4-dihydro-2,7-naphthyridin-2(1H)-yl)-2-hydroxypropyl)pyrimidine-4-carboxamide] | 1 to 10
CC(=O)N1CCC(Nc2cc(C(=O)NC[C@H](O)CN3CCc4ccncc4C3)ccn2)CC1 [Compound 2-19, (S)-2-((1-acetylpiperidin-4-yl)amino)-N-(3-(3,4-dihydro-2,7-naphthyridin-2(1H)-yl)-2-hydroxypropyl)isonicotinamide] | 0.101 to 1
CC(=O)N1CC(Nc2cc(C(=O)NC[C@H](O)CN3CCc4sc(C)nc4C3)ncn2)C1 [Compound 1-27] | 1 to 10
O=C(NC[C@H](O)CN1CCc2cnccc2C1)c1cc(NC2COC2)ncn1 [Compound 2-15] | 1 to 10
CC(=O)N1CCC(Nc2cc(C(=O)NC[C@H](O)CN3CCc4ncccc4C3)ccn2)CC1 [Compound 2-20, (S)-2-((1-acetylpiperidin-4-yl)amino)-N-(3-(7,8-dihydro-1,6-naphthyridin-6(5H)-yl)-2-hydroxypropyl)isonicotinamide] | 0.101 to 1
O=C(NC[C@H](O)CN1CCc2[nH]nc(-c3ccccc3)c2C1)c1cc(NC2COC2)ncn1 [Compound 3-17, (S)—N-(2-hydroxy-3-(3-phenyl-6,7-dihydro-1H-pyrazolo[4,3-c]pyridin-5(4H)-yl)propyl)-6-(oxetan-3-ylamino)pyrimidine-4-carboxamide] | > 10
CC(=O)N1CC(Nc2cc(C(=O)NC[C@H](O)CN3CCc4cnccc4C3)ncn2)C1 [Compound 2-16] | 0.101 to 1
CC(=O)N1CC(Nc2cc(C(=O)NC[C@H](O)CN3CCc4[nH]c(C)nc4C3)ncn2)C1 [Compound 3-47] | > 10
CC(=O)N1CC(Nc2cc(C(=O)NC[C@H](O)CN3CCc4sccc4C3)ncn2)C1 [Compound 1-2, (S)-6-((1-acetylazetidin-3-yl)amino)-N-(3-(6,7-dihydrothieno[3,2-c]pyridin-5(4H)-yl)-2-hydroxypropyl)pyrimidine-4-carboxamide] | < 0.1
CC(=O)N1CCC(Nc2cc(C(=O)NC[C@H](O)CN3CCc4[nH]ncc4C3)ccn2)CC1 [Compound 3-21] | 1 to 10

Now from value to molecule:

IC50 [µM] | Structure (SMILES)
1 to 10 | CC(=O)N1CC(Nc2cc(C(=O)NC[C@H](O)CN3CCc4[nH]ncc4C3)ncn2)C1 [Compound 3-23]
> 10 | CC(=O)N1CCC(Nc2cc(C(=O)NC[C@H](O)CN3CCc4nn(C)cc4C3)ncn2)CC1 [Compound 3-57]
> 10 | Cc1nc2c(s1)CN(C[C@@H](O)CNC(=O)c1cc(NC3COC3)ncn1)CC2 [Compound 1-8, (S)—N-(2-hydroxy-3-(2-methyl-6,7-dihydrothiazolo[5,4-c]pyridin-5(4H)-yl)propyl)-6-(oxetan-3-ylamino)pyrimidine-4-carboxamide]
1 to 10 | CC(=O)N1CCC(Nc2cc(C(=O)NC[C@H](O)CN3CCc4nn(C)cc4C3)ccn2)CC1 [Compound 3-53]
> 10 | O=C(NC[C@H](O)CN1CCc2[nH]cnc2C1)c1cc(NC2COC2)ncn1 [Compound 3-38, (S)—N-(3-(6,7-dihydro-1H-imidazo[4,5-c]pyridin-5(4H)-yl)-2-hydroxypropyl)-6-(oxetan-3-ylamino)pyrimidine-4-carboxamide]
< 0.1 | CC(=O)N1CCC(Nc2cc(C(=O)NC[C@H](O)CN3CCc4ncccc4C3)ncn2)CC1 [Compound 2-14, (S)-6-((1-acetylpiperidin-4-yl)amino)-N-(3-(7,8-dihydro-1,6-naphthyridin-6(5H)-yl)-2-hydroxypropyl)pyrimidine-4-carboxamide]
> 10 | CC(=O)N1CCC(Nc2cc(C(=O)NC[C@H](O)CN3CCc4cn[nH]c4C3)ccn2)CC1 [Compound 3-50]
1 to 10 | O=C(COc1cccc2cccnc12)NCC(O)CN1CCc2cnccc2C1 (centres unmarked) [Compound 2-7, N-[2-hydroxy-3-(1,2,3,4-tetrahydro-2,6-naphthyridin-2-yl)propyl]-2-(quinolin-8-yloxy)acetamide]
> 10 | CC(=O)N1CCC(Nc2cc(C(=O)NC[C@H](O)CN3CCc4c(cnn4C)C3)ncn2)CC1 [Compound 3-56]
> 10 | Cc1nc2c([nH]1)CCN(C[C@@H](O)CNC(=O)c1cc(NC3COC3)ncn1)C2 [Compound 3-41]
< 0.1 | CC(=O)N1CCC(Nc2cc(C(=O)NC[C@H](O)CN3CCc4scc(C)c4C3)ccn2)CC1 [Compound 1-14, (S)-2-((1-acetylpiperidin-4-yl)amino)-N-(2-hydroxy-3-(3-methyl-6,7-dihydrothieno[3,2-c]pyridin-5(4H)-yl)propyl)isonicotinamide]
> 10 | CC(=O)N1CCC(Nc2cc(C(=O)NC[C@H](O)CN3CCCc4c3cnn4C)ncn2)CC1 [Compound 3-58]
1 to 10 | O=C(COc1cccc2cccnc12)NCC(O)CN1CCc2ncccc2C1 (centres unmarked) [Compound 2-6, N-[2-hydroxy-3-(5,6,7,8-tetrahydro-1,6-naphthyridin-6-yl)propyl]-2-(quinolin-8-yloxy)acetamide]
> 10 | CC(=O)N1CCC(Nc2cc(C(=O)NC[C@H](O)CN3CCc4oc(C)nc4C3)ncn2)CC1 [Compound 4-3, (S)-6-((1-acetylpiperidin-4-yl)amino)-N-(2-hydroxy-3-(2-methyl-6,7-dihydrooxazolo[4,5-c]pyridin-5(4H)-yl)propyl)pyrimidine-4-carboxamide]
1 to 10 | CC(=O)N1CCC(Nc2cc(C(=O)NC[C@H](O)CN3CCc4c(cnn4C)C3)ccn2)CC1 [Compound 3-52]
1 to 10 | O=C(COc1cccc2cccnc12)NCC(O)CN1CCc2cccnc2C1 (centres unmarked) [Compound 2-5, N-[2-hydroxy-3-(5,6,7,8-tetrahydro-1,7-naphthyridin-7-yl)propyl]-2-(quinolin-8-yloxy)acetamide]
> 10 | CC(=O)N1CC(Nc2cc(C(=O)NC[C@H](O)CN3CCCc4c3cnn4C)ncn2)C1 [Compound 3-46]

— patent US20170210751A1, “PRMT5 INHIBITORS AND USES THEREOF” (Epizyme, Inc., priority 2014, published 2017)
